Assay results taken from a melting point compilation (Tetko et al.; mined from patent text by program, amines drawn as free bases though some values may be those of a salt).

melting point [°C] | SMILES
63 | O=C(Cl)N1CC=C(c2ccccc2)CC1
> 200 | Nc1ccc(-c2cnc3c(c2)N(Cc2c(F)ccc(F)c2Cl)CCN3)cn1
244 to 245 | CC(C)(O)Cn1c(CO)nc2c(N)nc3cc(-c4ccccc4)cnc3c21
139 to 140 | O=C1Nc2cc3c(cc2OC1CCCBr)CCCC3 (stereo unspecified)
204 to 205 | NC(=O)c1ccc(N2CCN(CCC3CCc4ccccc43)CC2)cc1 (stereo unspecified)
93 to 95 | CC(=O)NCCOC(=O)C(Oc1cccc(C(F)(F)F)c1)c1ccc(Cl)cc1 (stereo unspecified)
117 to 118 | CCOC(=O)c1cn(Cc2ccc(Oc3ccccc3)cc2)nc1O
60 to 75 | O=C(OCC1OC(n2cnc3c(NCC(c4ccccc4)c4ccccc4)ncnc32)C(OC(=O)c2ccccc2)C1OC(=O)c1ccccc1)c1ccccc1 (stereo unspecified)
33 | Clc1nsnc1-c1ccccc1
216 to 219 | Nc1cnc(-c2ccc(OCc3ccccc3)c(C34CC5CC(CC(C5)C3)C4)c2)nc1
224 to 225 | COc1cc(Nc2c(C#N)cnc3cc(-c4ccc(CN(C)C)cc4)sc23)c(Cl)cc1Cl
62 to 63 | CCOCC(COCC)Oc1ccc(/C=C/C(=O)O)c(Oc2ncc(C(F)(F)F)cc2Cl)c1
205 to 209 | CCCCn1c(=O)c2nc(C(=O)OCC)cn2c2ccccc21
172 to 178 | Clc1cccc2c1C1(CO1)c1cccc(Cl)c1C21CO1 (stereo unspecified)
120 to 123 | Clc1ccc2c(c1)N=C(N1CCNCC1)c1nccn1C2
160 | Cc1ccc(Oc2c(-c3ccc(S(C)(=O)=O)cc3)oc(C(F)F)cc2=O)cc1
97 to 102 | CC(CF)(CF)C(O)C(Oc1ccc(Cl)cc1)n1cncn1 (stereo unspecified)
89 to 90 | O=C1CC2CCCC(CC(=O)OCc3ccccc3)C2N1 (stereo unspecified)
160 | CC(C)c1ccc(S(=O)(=O)Nc2cnc(Cl)cc2I)cc1
109 to 111 | N#Cc1cccc(C=O)c1[N+](=O)[O-]
> 210 | O=c1n(-c2cc(O)c(Cl)cc2F)nc2ccc(Cl)cn12
35.5 to 36.5 | C#CC(C)(O)CCC=C(C)CCC=C(C)CCC=C(C)CCC=C(C)CCC=C(C)CCC=C(C)CCC=C(C)CCC=C(C)CCC=C(C)CCC=C(C)C (stereo unspecified)
104 to 106 | CC(C)Oc1cc(CCCOc2cc(CCC(=O)O)n(-c3ccccc3)n2)cc(COc2ccc(Cl)cc2Cl)c1

melting point [°C] | SMILES
84 to 85 | CCOC(=O)COc1ccc(C2C(C(=O)OCC)=C(C)N(C)C(C)=C2C(=O)OCC)cc1OC
132 to 134 | O=C(NCC1Cc2c(cccc2-c2ccccc2)O1)OCc1ccccc1 (stereo unspecified)
94 to 95 | COC(C)C(O)(Cc1ccc(Cl)cc1Cl)c1cccnc1 (stereo unspecified)
210 to 212 | O=S(=O)(CCO)Cc1ccc(CS(=O)(=O)CCO)cc1
142 to 143 | CC(C#N)(CC#N)c1cccc([N+](=O)[O-])c1 (stereo unspecified)
165 to 169 | CCCOc1ccc(C(=O)O)cc1C(C)=O
108 to 110 | O=C1CC(C(F)(F)F)CC(=O)N1c1cc(OCSc2ccccc2)c(Cl)cc1F
168 to 171 | Cc1cccc2c1NCC(=O)N2
252 to 253 | CC1(C)C(=O)Nc2ccc(C#N)cc2N(C2CC2)C1=O
60 to 61 | Cc1c(C)c2c(c(C)c1Br)CC(C)(CBr)O2 (stereo unspecified)
241 to 243 | O=C1CCC(N2C(=O)c3cccc(CNC(=O)Nc4ccc(Cl)c(Cl)c4)c3C2=O)C(=O)N1 (stereo unspecified)
110 to 113 | Cc1cccc([C@H]2[C@H](C(=O)Nc3ccc(F)c(F)c3)C2(C)C)c1 (relative stereo)
199 to 200 | COc1nccc2c(=O)n(C)c(N3C=CC(OC4CCN(C5CCC5)CC4)=NC3)nc12
262 to 264 | O=c1[nH]c2cc(C(F)(F)F)c([N+](=O)[O-])cc2n1-c1cc(Cl)cc(Br)c1O
132 to 133 | Cc1cc([N+](=O)[O-])cc(C=O)c1O
168 to 170 | CCCCc1nn(-c2ccccc2C(F)(F)F)c(=O)n1Cc1ccc(-c2ccccc2S(=O)(=O)NC(C)(C)C)cc1
141 to 142 | CCCC(CCC)n1nnc2c(Nc3c(C)cc(C)cc3Br)nc(C)nc21
139 to 140 | O=C(O)c1ccccc1Oc1cc(Cl)c(Cl)cc1NS(=O)(=O)c1cc(C(F)(F)F)cc(C(F)(F)F)c1
219 to 220 | COc1ccc(-c2nc(C#N)c[nH]2)cc1
63 to 65 | CCC1(C(=O)C=Cc2ccc(OC)c(OC)c2)CC1
210 to 211 | O=P(Oc1ccc(S(=O)(=O)c2ccc(OP(=O)(c3ccccc3)c3ccccc3)cc2)cc1)(c1ccccc1)c1ccccc1
175 | CC(C(N)=O)c1ccc2c(c1)CCc1ccccc1C2=O (stereo unspecified)
153 to 155 | CC(C)(Cl)CC1NC(=O)c2ccccc21 (stereo unspecified)

melting point [°C] | SMILES
130 to 131 | CC(C)=CCOC1(C(F)(F)F)CN(C2CC2)C(=O)Nc2ccc(Cl)cc21 (stereo unspecified)
169 | CCOC(=O)C1=C(C)NC(N)=C(C(=O)OCC)C1c1cccc([N+](=O)[O-])c1 (stereo unspecified)
119 | Cc1cc2ccccc2cc1C=O
140 to 142 | COc1ccc2sc(CC3(O)C4CC5CC(C4)CC3C5)nc2c1 (stereo unspecified)
106 to 107 | CCOC(=O)/C=C/c1ccc(OCCCC#N)cc1Oc1ncc(C(F)(F)F)cc1Cl
86 to 87 | O=C(c1ccccc1Cl)c1cc(Cl)cc(Br)c1I
149 to 150 | CC(C)(C)c1cc(C[C@@H]2SCNC2=O)cc(C(C)(C)C)c1O
74 to 75 | N#CC(c1cccc(F)c1)N1CCOCC1 (stereo unspecified)
218 | Cc1cc(OCc2c(-c3c(Cl)cccc3Cl)noc2C(C)C)cnc1NC(=O)c1ccc(C(=O)O)cc1
142 to 144 | Cc1c(CN(C)CCc2ccc(NS(C)(=O)=O)cc2)oc2ccc(NS(C)(=O)=O)cc12
207 | CC(=O)Oc1cccc(C(=O)Nc2ccc3ccc(Cl)nc3n2)c1
200 | COc1ccc(C(=O)Nc2ccc3ccc(OC4CCN(C)CC4)nc3n2)cc1
118 to 119 | C=Cc1ccc(CSCCNC(=O)CCCC(=O)O)cc1
179 to 181 | Cc1c(NC(=O)C(CS)Cc2ccccc2)cccc1C(=O)O (stereo unspecified)
154 to 156 | CC(C)(CO)c1ccc(C(=O)O)cc1
280 to 285 | NS(=O)(=O)c1ccc(NC(=O)Nc2ccc3c(c2)Cc2ccccc2-3)cc1
72 to 74 | COC(=O)c1cc2n(c1)CCCC2
96 | Cc1ccc(=S)n(-c2cccc(C(F)(F)F)c2)c1
94 to 95 | CC(C)Oc1ccc2c(c1)Oc1ccccc1S2(=O)=O
130 to 131 | Cc1ccccc1C1CCN(C(=O)CCC(=O)c2ccc3c(c2)CCN(C(=O)C(F)(F)F)CC3)CC1
167 to 168 | CCCN(CCC)C(=O)C1Cc2ccccc2N1c1nc(-c2ccccc2)nc(C)c1C (stereo unspecified)

SMILES | melting point [°C]
O=C(CCc1ccccc1)CS(=O)(=O)C(c1ccc(Cl)cc1)c1ccc(Cl)cc1 | 106 to 107
CCNn1nnnc1S | 90 to 91
CCN(C(=O)C1CC1)c1cccc(-c2ccnc3c(C(=O)c4ccccc4)cnn23)c1 | 153 to 155
CCC1CC(=O)C2Oc3c(OC)ccc4c3C23CCN(C#N)C(C4)C13 (stereo unspecified) | 212 to 217
